Results as given in patent US5082931A, “Type II bacterial Fc receptors” (University of Florida Research Foundation, Inc., priority 1989, dated 1992).
Residues, ends and D or L forms follow the SMILES beside them.

Key:
Set-up in all cases: species or system group A streptococcus
[1] = system: type II Fc receptor on group A streptococcal strain 64/14/HRP; test: Inhibition of 125I-labeled IgG binding to type II Fc receptor-positive bacteria by dipeptides or histidine; settings: whole bacteria 64/14/HRP, 1.5 hr at 37° C., 20,000 cpm 125I human IgG; concentration range, see FIG. 7, FIG. 9
Description: Staphylococcus aureus Cowan I served as the representative type I Fc receptor-positive strain. The group A streptococcal strain 64/14/HRP served as a representative type II Fc receptor-positive strain. The group C streptococcal strain 26RP66 served as a representative type III Fc receptor-positive strain. All strains were grown as stationary cultures in Todd Hewitt broth (Difco) for 18-24 hr at 37° C., harvested by centrifugation and washed in phosphate buffered saline (PBS), pH 7.2.
Glycyl-L-tyrosine, glycyl-L-histidine, glycyl-glycine, glycyl-DL-leucine, glycyl-DL-phenylalanine, and L-histidine were utilized in the tests.
The detection of Fc-reactive proteins on the surface of bacteria was determined by the ability of the bacteria to bind ^125 I-labeled IgG as follows: Briefly, a stock preparation of bacteria was standardized to bind approximately 75% of the 20,000 cpm of labeled IgG added at pH 7.0. Following standardization for the Fc receptor activity, aliquots of bacteria were incubated with ^125 I-labeled IgG and the indicated amount of the dipeptides for 1.5 hr. at 37° C. […] The radioactivity associated with the bacteria was determined in an LKB autogamma counter. The cpm bound to the bacterial pellet were expressed as percent of maximum cpm bound. […]
A standard number of Staphylococcus aureus Cowan strain ( -- ), group C streptococcal strain 26RP66 (.largecircle.--.largecircle.), or the group A streptococcal strain 64/14/HRP ( .circle.--.circle. ) was incubated for 1.5 hr. at 37° C. with 20,000 cpm of ^125 I labeled human IgG in the presence of the indicated amounts of dipeptide. […] The radioactivity associated with the bacteria was determined in an LKB autogamma counter. The cpm bound to the bacterial pellet were expressed as percent of maximum cpm bound.
A standard number of group A streptococci was incubated for 1.5 hr. at 37° C. with 20,000 cpm of the appropriately ^125 I-labeled species IgG in the presence of the indicated amounts of histidine. […] The cpm bound to the bacterial pellet were expressed as percent of maximum cpm bound. […]

[2] = system: type IIa Fc receptor (Mr 56,000; receptor for human IgG1, IgG2 and IgG4) of group A streptococcal strain 64/14/HRP; test: Inhibition of 125I-labeled IgG1, IgG2, IgG4, pig or rabbit IgG binding to strain 64/14/HRP; settings: whole bacteria 64/14/HRP, 1.5 hr at 37° C.; for inhibition of binding of labeled human IgG1, IgG2 and IgG4 to the bacteria: varying concentrations, FIG. 8 panels A, B, D; for inhibition of binding of labeled pig or rabbit IgG to the bacteria: FIG. 9
Description: (§1) In the next series of experiments, the ability of the inhibitory dipeptides, glycyl-tyrosine and glycyl-histidine, were tested for their ability to inhibit the binding of each labeled human IgG subclass to the type II receptor-positive 64/14/HRP bacteria. Glycyl-glycine was also included as a negative control.
(§2) A standard number of group A streptococci was incubated for 1.5 hr. at 37° C. with 20,000 cpm of the approprimately ^125 I-labeled human IgG subclasses in the presence of varying concentrations of dipeptide. The bacteria were pelleted by centrifugations of 1000×g for 10 min. and washed twice with 3 ml of veronal buffered saline containing 0.01 M EDTA and 0.1% gelatin. The radioactivity associated with the bacteria was determined in an LKB autogamma counter. The cpm bound to the baterial pellet were expressed as percent of maximum cpm bound. See FIG. 8 wherein Panel A represents the results obtained from the binding of ^125 I IgG1. Panel B represents the results obtained from the binding of ^125 I IgG2. Panel C represents the results obtained from the binding of ^125 I IgG3. Panel D represents the results obtained from the binding of ^125 I IgG4.
In the next series of experiments the effect of histidine, glycyl-histidineor glycyl-tyrosine on the binding of labeled pig or rabbit IgG was tested.
A standard number of group A streptococci was incubated for 1.5 hr. at 37° C. with 20,000 cpm of the appropriately ^125 I-labeled species IgG in the presence of the indicated amounts of histidine. The bacteria were washed as described above. The cpm bound to the bacterial pellet were expressed as percent of maximum cpm bound. In FIG. 9, ( .circle.--.circle. ) represents ^125 I human IgG; ( -- ) represents ^125 I pig IgG; and ( -- ) represents rabbit IgG.

[3] = system: type IIb Fc receptor (Mr 38,000; IgG3-specific receptor) of group A streptococcal strain 64/14/HRP; test: Inhibition of 125I-labeled human IgG3 binding to strain 64/14/HRP; settings: whole bacteria 64/14/HRP, 1.5 hr at 37° C., varying concentrations; FIG. 8 panel C
Description: as §1, §2

SMILES | inhibition of binding of 125I-labeled human IgG to type II Fc receptor positive bacteria [1] | inhibition of binding of labeled human IgG1, IgG2 and IgG4 to the bacteria [2] | inhibition of binding of labeled pig or rabbit IgG to the bacteria [2] | inhibition of binding of labeled human IgG3 to the bacteria [3]
NCC(=O)N[C@@H](Cc1ccc(O)cc1)C(=O)O [glycyl-tyrosine, Glycyl-L-tyrosine] (H-Gly-Tyr-OH) | inhibition | efficiently inhibit | inhibited | minimal inhibition
N[C@@H](Cc1c[nH]cn1)C(=O)O [histidine, L-histidine] | inhibited | inhibited | inhibited | minimal inhibition
NCC(=O)N[C@@H](Cc1c[nH]cn1)C(=O)O [glycyl-histidine, glycyl-L-histidine] (H-Gly-His-OH) | inhibition | efficiently inhibit | inhibited | minimal inhibition
